From US7037922B1, “Aryl fused 2,4-disubstituted pyridines: NK3 receptor ligands” (Neurogen Corporation, priority 2000, dated 2006)

Target: T1, NK-3 receptor (Homo sapiens, UniProt P29371)
T1 construct: expressed in transfected cells; total cellular membranes used
T1 sequence (P29371 1-465): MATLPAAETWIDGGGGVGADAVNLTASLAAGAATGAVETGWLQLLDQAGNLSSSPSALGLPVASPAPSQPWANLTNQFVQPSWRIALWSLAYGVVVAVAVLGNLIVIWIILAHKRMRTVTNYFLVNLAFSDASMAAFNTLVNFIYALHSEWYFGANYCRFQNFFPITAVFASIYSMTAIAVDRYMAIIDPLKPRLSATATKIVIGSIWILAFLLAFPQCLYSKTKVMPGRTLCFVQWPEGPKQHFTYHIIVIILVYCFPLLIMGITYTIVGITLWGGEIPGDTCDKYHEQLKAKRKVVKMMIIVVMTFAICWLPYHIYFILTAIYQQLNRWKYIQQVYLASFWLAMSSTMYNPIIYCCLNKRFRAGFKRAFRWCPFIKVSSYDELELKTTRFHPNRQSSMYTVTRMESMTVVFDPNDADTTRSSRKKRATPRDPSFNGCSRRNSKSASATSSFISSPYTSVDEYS
Assay: NK3 receptor binding assay (displacement of 125I-methylPhe7-neurokinin B)
Settings: membranes of Chinese hamster ovary cells expressing cloned human NK-3 receptor; 0.15 nM 125I-methylPhe7-neurokinin B; 2 hours at 4° C.
Description: The following assay is a standard assay of NK3 receptor binding, which is used to determine the NK-3 receptor binding affinity of compounds.
Assays are performed as described in Krause et al (Proc. Natl. Acad. Sci. USA 94: 310–315, 1997). The NK-3 receptor complementary DNA was cloned from human hypothalamic RNA using standard procedures. The receptor cDNA was inserted into the expression vector pM^2 to transfect the mammalian Chinese hamster ovary cell line, and a stably expressing clonal cell line was isolated, characterized and used for the current experiments. Cells are grown in minimal essential medium alpha containing 10% fetal bovine serum and 0.8 mg G418 per ml. Cells were liberated from cell culture plates with No-zyme (PBS base, JRH Biosciences), and harvested by low speed centrifugation. The cell pellet was homogenized in TBS (0.05 m TrisHCl, 120 mM NaCl, pH 7.4) with a Polytron homogenizer at setting 5 for 20 seconds, and total cellular membranes were isolated by centrifugation at 47,500×g for 10 minutes. The membrane pellet was resuspended by homogenization with the Polytron as above, and the membranes were isolated by centrifugation at 47,500×g for 10 minutes. This final membrane pellet was resuspended in TBS at a protein concentration of 350 μg/ml.
Receptor binding assays contain a total volume of 200 μl containing 50 μg membrane protein, 0.15 nM ^125I-methylPhe^7-neurokinin B, drug or blocker in TBS containing 1.0 mg/ml bovine serum albumen, 0.2 mg/ml bacitracin, 20 ug/ml leupeptin and 20 μg/ml chymostatin. Incubations are carried out for 2 hours at 4° C., and the membrane proteins are harvested by passing the incubation mixture by rapid filtration over presoaked GF/B filters to separate bound from free ligand. […] After filtration of the incubation mixture, filters are rinsed 4 times with ice-cold TBS containing 0.01% sodium dodecyl sulfate and counted in a β-plate scintillation counter. […] Data are collected in duplicate determinations, averaged, and the percent inhibition of total specific binding is calculated. […]

An IC50 of 0.08 µM was found for `CC[C@H](NC(=O)c1cc(-c2ccccc2)nc2ccsc12)c1ccccc1` [Compound 2] in this work.
An IC50 of 0.05 µM was found for `CC[C@H](NC(=O)c1cc(-c2ccccc2)nc2ccncc12)c1ccccc1` [Compound 1] in this work.
An IC50 of 0.1 µM was found for `CC[C@H](NC(=O)c1cc(-c2ccccc2)nc2ncccc12)c1ccccc1` [Compound 3] in this work.
